Some test systems named below: OVCAR-5 ovarian; SF-268 CNS; SK-MEL-28 melanoma; SNB-19 CNS; SK-MEL-5 melanoma; SN12C renal; NCI-H226 lung; NCI/ADR-RES ovarian; PC-3 prostate.
What all share (assay): NCI-60 cell line screen, 48 h

The values that follow come from PubChem BioAssay (NCI).

SMILES strings stand for the structures.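 Assay format: 96-well plates, 48-hour exposure. GI50 marks 50% less growth. TGI: concentration producing complete growth inhibition.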

Consider `NCCN.O=C([O-])[O-].O=C([O-])[O-].[Co+3].[K+]`, for which the GI50 in the assay with OVCAR-5 ovarian, in the assay on SF-268 CNS, in the assay with SK-MEL-28 melanoma, with SNB-19 CNS, in the assay with SK-MEL-5 melanoma and in the assay on SN12C renal was more than 100 µM throughout. Further, the TGI in the assay on OVCAR-5 ovarian, in the assay with SF-268 CNS, in the assay with SK-MEL-28 melanoma, in the assay on SNB-19 CNS, in the assay on SK-MEL-5 melanoma and with SN12C renal was more than 100 µM throughout.

As for `CC(=O)[CH-]C(=O)c1ccccc1.CC(=O)[CH-]C(=O)c1ccccc1.O=S(=O)([O-])c1cc([O-])c2c([O-])cc(S(=O)(=O)[O-])cc2c1.[Na+].[Ti+4]`, the GI50 was 47.5 µM in the assay on NCI-H226 lung; more than 100 µM in the assay on OVCAR-5 ovarian; more than 100 µM with SF-268 CNS; more than 100 µM in the assay on SK-MEL-28 melanoma; more than 100 µM in the assay with SNB-19 CNS; more than 100 µM in the assay with SK-MEL-5 melanoma. For the same compound, in the assay with SN12C renal, the GI50 was more than 100 µM. For the same compound, the TGI with NCI-H226 lung, in the assay on OVCAR-5 ovarian, in the assay on SF-268 CNS, with SK-MEL-28 melanoma, in the assay on SNB-19 CNS and in the assay on SK-MEL-5 melanoma was more than 100 µM throughout. The TGI in the assay with SN12C renal was more than 100 µM.

For `N#CC(C#N)=C1CCCOc2c1ccc1ccccc21`, the GI50 with OVCAR-5 ovarian was more than 100 µM; in the assay with SF-268 CNS, more than 100 µM; with NCI/ADR-RES ovarian it was more than 100 µM; in the assay with SK-MEL-28 melanoma it was more than 100 µM; in the assay on SNB-19 CNS it was 94.3 µM; in the assay with SN12C renal, more than 100 µM. Also, the GI50 in the assay with PC-3 prostate is 39.8 µM. Besides, the TGI in the assay with OVCAR-5 ovarian, in the assay on SF-268 CNS, in the assay with NCI/ADR-RES ovarian, in the assay on SK-MEL-28 melanoma, in the assay with SNB-19 CNS and in the assay with SN12C renal was more than 100 µM in each case. Also, the TGI with PC-3 prostate is more than 100 µM.

As for `Cc1c(Cl)cccc1NC(=O)c1cccc([N+](=O)[O-])c1O`, the TGI was 56.3 µM with NCI-H226 lung; more than 93.8 µM with OVCAR-5 ovarian; more than 100 µM in the assay with SF-268 CNS; more than 77 µM with SK-MEL-28 melanoma; more than 100 µM in the assay on SNB-19 CNS; 15.5 µM in the assay on SK-MEL-5 melanoma. In the assay with SN12C renal, this compound gave a TGI of 97.4 µM.

For the compound `O=C1c2ccccc2C(=O)N1C/C=N/NS(=O)(=O)c1ccc(Br)cc1`, the TGI in the assay on NCI-H226 lung, with OVCAR-5 ovarian, in the assay on SF-268 CNS, in the assay on SK-MEL-28 melanoma, in the assay with SNB-19 CNS and with SK-MEL-5 melanoma was more than 100 µM in each case. In the assay on SN12C renal, this compound came in with a TGI of more than 100 µM.

For `CSc1ccc2c(cc1=O)[C@@H](NC(=O)c1cc(O)c(O)c(O)c1)CCc1cc(O)c(O)c(O)c1-2`, the TGI was 35 µM in the assay with NCI-H226 lung; 31.3 µM in the assay with OVCAR-5 ovarian; more than 100 µM in the assay on SF-268 CNS; 94.8 µM in the assay on SK-MEL-28 melanoma; more than 100 µM with SNB-19 CNS; 36.1 µM in the assay on SK-MEL-5 melanoma. In the assay on SN12C renal, this compound registered a TGI of 34.5 µM.

Consider `N#Cc1c(-c2ccco2)cc(-c2ccc(N)cc2)[nH]c1=O`, for which the TGI in the assay on NCI-H226 lung, with OVCAR-5 ovarian, with SF-268 CNS, in the assay on SK-MEL-28 melanoma, in the assay on SNB-19 CNS and with SK-MEL-5 melanoma was more than 100 µM throughout. In the assay on SN12C renal, the TGI was more than 100 µM.

In the case of `Cc1ccc2c(c1-c1ccccc1)C(=O)OC2`, the TGI with NCI-H226 lung, in the assay on SF-268 CNS, with SK-MEL-28 melanoma, in the assay on SNB-19 CNS, in the assay with SK-MEL-5 melanoma and with SN12C renal was more than 100 µM each time.

As for `CCC[CH2][Sn]1([CH2]CCC)[O]CC(COc2c(Cl)cc(Cl)cc2Cl)[O]1` (centres undefined), the GI50 in the assay on NCI-H226 lung is 1.82 µM; with OVCAR-5 ovarian it was 2.02 µM; with SF-268 CNS, 1.15 µM; in the assay with SK-MEL-28 melanoma it was 1.39 µM; with SNB-19 CNS, 1.35 µM; in the assay on SN12C renal, 1.75 µM. Besides, the TGI in the assay with NCI-H226 lung was 3.82 µM; in the assay with OVCAR-5 ovarian, 3.46 µM; with SF-268 CNS, 2.68 µM; in the assay on SK-MEL-28 melanoma, 2.82 µM; in the assay on SNB-19 CNS it was 2.64 µM; with SN12C renal it was 3.27 µM.

`CCc1cccc(C)c1NC(=O)CC1C(=O)Nc2ccccc2S1=O` (centres undefined): the TGI in the assay with NCI-H226 lung, in the assay with OVCAR-5 ovarian, in the assay on SF-268 CNS, in the assay with SK-MEL-28 melanoma, in the assay with SNB-19 CNS and with SN12C renal was more than 100 µM throughout.

In the case of `C1=NC(N(Cc2ccccc2)Cc2ccccc2)N(Cc2ccccc2)N1` (centres undefined), the TGI in the assay on NCI-H226 lung worked out at 33.5 µM; in the assay on OVCAR-5 ovarian it was 42 µM; in the assay on SF-268 CNS, 47.4 µM; in the assay with SK-MEL-28 melanoma it was 37.2 µM; in the assay with SNB-19 CNS it was 55.3 µM; in the assay with SK-MEL-5 melanoma, 27.3 µM. The compound also displayed a TGI in the assay with SN12C renal of 34.1 µM.

For `Cc1ccc(C)c(N2C(=O)C(=O)C(c3nc4ccccc4o3)/C(=N\NC(=O)c3ccccc3O)C2=O)c1` (centres undefined), the TGI in the assay on NCI-H226 lung is 88.6 µM; in the assay with OVCAR-5 ovarian, more than 100 µM; in the assay with SF-268 CNS it was more than 100 µM; in the assay with SK-MEL-28 melanoma, more than 100 µM; in the assay with SNB-19 CNS, more than 100 µM; with SK-MEL-5 melanoma, more than 100 µM. The compound further gave a TGI in the assay with SN12C renal of more than 100 µM.

On to `CCc1nc(Cl)c(Cl)c(Cl)n1`, for which the TGI with NCI-H226 lung, in the assay with OVCAR-5 ovarian, in the assay with SF-268 CNS, in the assay on NCI/ADR-RES ovarian, in the assay with SK-MEL-28 melanoma and with SNB-19 CNS was more than 100 µM throughout. For the same compound, the TGI in the assay with SK-MEL-5 melanoma, in the assay on SN12C renal and in the assay with PC-3 prostate was more than 100 µM in each case.

Consider `Cc1ccc2[c](c1)[Sn]([c]1ccccc1)([c]1ccccc1)[c]1cc(C)ccc1N2C`, for which the GI50 is 49 µM in the assay with NCI-H226 lung; 70.3 µM with OVCAR-5 ovarian; 48.4 µM in the assay on SF-268 CNS; 64.5 µM with SK-MEL-28 melanoma; more than 100 µM in the assay on SNB-19 CNS; 33.2 µM in the assay on SK-MEL-5 melanoma. Moreover, the GI50 in the assay with SN12C renal is more than 100 µM. In addition, the TGI in the assay with NCI-H226 lung, in the assay on OVCAR-5 ovarian, in the assay with SF-268 CNS, with SK-MEL-28 melanoma, in the assay with SNB-19 CNS and in the assay on SK-MEL-5 melanoma was more than 100 µM in each case. The same compound registered a TGI in the assay with SN12C renal of more than 100 µM.
